# Experimental data as given in patent publication US20240300902A1, “NOVEL TRANSGLUTAMINASE 2 INHIBITOR AND USE THEREOF” (MD BIOLAB CO., LTD., priority 2021, published 2024).
# Test system: ACHN cells
# Assay: Preclinical xenograft tumor model (ACHN, BALB/c nude mice)
# Format: in vivo
# Conditions: 1 mg/kg or 10 mg/kg PO once daily, 5 days per week
# Description: Six-week-old male-specific, pathogen-free BALB/c nude mice (n=20) were purchased from the central lab (Animal Inc., Seoul, Korea). Each mouse was injected subcutaneously with ACHN cells (5.0×10^6 cells/each). When tumors reached an appropriate size (100 to 150 mm^3 for ACHN), mice were randomly selected and classified into 4 groups (n=4 to 5) according to the volume and weight of the tumor: The control group was untreated; the streptonigrin-treated group was administered in an amount of 0.2 mg/kg; and the LDD3959-treated group was administered in an amount of 1 mg/kg or 10 mg/kg. The streptonigrin and LDD3959 were orally administered to each treatment group, once daily for 5 days per week. For tumor identification, the mice were euthanized with 7.5% CO2 and the tumors were recovered for immunohistochemical analysis. The tumor volume was calculated according to the following equation: V=(A×B×B)/2 where V is the volume (mm^3), A is the long diameter (mm), and B is the short diameter (mm). The experiment was reviewed and approved by the Institutional Animal Care and Use Committee (IACUC) of the National Cancer Center Research Institute (NCCRI). […]
compound,measurement,value
"O=C1C(Cl)=C(Cl)C(=O)c2[nH]c(-c3ccc(Br)c(F)c3)nc21 [LDD3959, 2-(4-bromo-3-fluorophenyl)-5,6-dichloro-1H-benzo[d]imidazole-4,7-dione]",tumor volume increase rate,tumor volume increase rate decreased as the LDD3959 dose increased
